Source: US7202267B2, “Acyloxypyrrolidine derivatives, preparation thereof and application thereof in therapeutic” (Sanofi-aventis, priority 2002, dated 2007)

Assays:
[1] = target: T1, human V1b receptors (Homo sapiens, UniProt P47901); assay: Displacement of [3H]-AVP binding to human V1b receptors; settings: cellular or adenohypophyseal membrane preparations
T1 construct: host or cells: cellular or adenohypophyseal membrane preparations
T1 sequence (P47901 1-424): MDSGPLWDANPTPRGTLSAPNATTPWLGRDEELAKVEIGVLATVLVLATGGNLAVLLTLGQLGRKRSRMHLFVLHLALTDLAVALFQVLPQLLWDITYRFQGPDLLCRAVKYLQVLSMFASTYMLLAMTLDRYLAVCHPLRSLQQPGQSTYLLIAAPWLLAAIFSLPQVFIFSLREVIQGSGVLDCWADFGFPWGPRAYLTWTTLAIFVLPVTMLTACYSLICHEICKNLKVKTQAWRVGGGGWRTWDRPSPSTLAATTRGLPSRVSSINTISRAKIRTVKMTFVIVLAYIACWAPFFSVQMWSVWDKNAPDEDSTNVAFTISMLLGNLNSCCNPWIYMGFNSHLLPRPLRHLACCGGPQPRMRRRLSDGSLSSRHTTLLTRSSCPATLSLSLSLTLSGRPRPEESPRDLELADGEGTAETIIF
Protocol: (§1) The affinity of the compounds of formula (I) according to the invention, for V1b receptors for arginine-vasopressin, was determined in vitro using the method described by Y. DE KEYSER et al., Febs Letters, 1994, 356, 215–220. This method consists in studying, in vitro, the displacement of […] arginine-vasopressin ([^3H]-AVP) to V1b receptors present on cellular or adenohypophyseal membrane preparations bearing rat or human V1b receptors.

[2] = target: T2, human V1a receptors (Homo sapiens, UniProt P37288); assay: Displacement of [3H]-AVP binding to human V1a receptors; settings: cellular or membrane preparations
T2 construct: host or cells: cellular or membrane preparations
T2 sequence (P37288 whole entry): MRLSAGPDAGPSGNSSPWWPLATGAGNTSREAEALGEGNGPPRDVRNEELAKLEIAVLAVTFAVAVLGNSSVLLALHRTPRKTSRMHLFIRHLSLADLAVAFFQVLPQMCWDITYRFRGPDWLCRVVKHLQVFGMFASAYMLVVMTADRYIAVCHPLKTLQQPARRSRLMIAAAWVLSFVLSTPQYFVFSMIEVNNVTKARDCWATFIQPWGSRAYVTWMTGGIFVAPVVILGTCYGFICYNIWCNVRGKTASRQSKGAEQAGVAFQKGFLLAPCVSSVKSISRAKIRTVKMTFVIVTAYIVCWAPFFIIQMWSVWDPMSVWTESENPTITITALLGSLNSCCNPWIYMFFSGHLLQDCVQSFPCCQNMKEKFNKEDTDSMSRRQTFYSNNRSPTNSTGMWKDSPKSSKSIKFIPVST
Protocol: as §1, with “V1a” for “V1b”, “M. THIBONNIER” for “Y. DE KEYSER”, “J. Biol. Chem.,” for “Febs Letters,”, “269, 3304–3310.” for “356, 215–220.”, “or” for “or adenohypophyseal”

In the case of COc1ccc(S(=O)(=O)N2C(=O)[C@@](c3ccccc3OC)(N3C[C@H](OC(C)=O)C[C@H]3C(=O)N(C)C)c3cc(Cl)ccc32)c(OC)c1 [Example 1, (3R,5S)-1-[(3R)-5-chloro-1-[(2,4-dimethoxyphenyl)sulfonyl]-3-(2-methoxyphenyl)-2-oxo-2,3-dihydro-1H-indol-3-yl]-5-[(dimethylamino)carbonyl]-3-pyrrolidinyl acetate], the IC50 [1] is reported as 0.0034 µM and the IC50 [2] is reported as 0.084 µM.
